The text below walks through data of US10717716B2, “1,3,4-oxadiazole derivative compounds as histone deacetylase 6 inhibitor, and the pharmaceutical composition comprising the same” (Chong Kun Dang Pharmaceutical Corp., priority 2015, dated 2020).

pIC50: −log10 of the molar value.

The assay addresses T1, human recombinant HDAC6 (Homo sapiens, UniProt Q9UBN7).
T1 construct: purchased Calbiochem 382180
T1 sequence (Q9UBN7 1-1215): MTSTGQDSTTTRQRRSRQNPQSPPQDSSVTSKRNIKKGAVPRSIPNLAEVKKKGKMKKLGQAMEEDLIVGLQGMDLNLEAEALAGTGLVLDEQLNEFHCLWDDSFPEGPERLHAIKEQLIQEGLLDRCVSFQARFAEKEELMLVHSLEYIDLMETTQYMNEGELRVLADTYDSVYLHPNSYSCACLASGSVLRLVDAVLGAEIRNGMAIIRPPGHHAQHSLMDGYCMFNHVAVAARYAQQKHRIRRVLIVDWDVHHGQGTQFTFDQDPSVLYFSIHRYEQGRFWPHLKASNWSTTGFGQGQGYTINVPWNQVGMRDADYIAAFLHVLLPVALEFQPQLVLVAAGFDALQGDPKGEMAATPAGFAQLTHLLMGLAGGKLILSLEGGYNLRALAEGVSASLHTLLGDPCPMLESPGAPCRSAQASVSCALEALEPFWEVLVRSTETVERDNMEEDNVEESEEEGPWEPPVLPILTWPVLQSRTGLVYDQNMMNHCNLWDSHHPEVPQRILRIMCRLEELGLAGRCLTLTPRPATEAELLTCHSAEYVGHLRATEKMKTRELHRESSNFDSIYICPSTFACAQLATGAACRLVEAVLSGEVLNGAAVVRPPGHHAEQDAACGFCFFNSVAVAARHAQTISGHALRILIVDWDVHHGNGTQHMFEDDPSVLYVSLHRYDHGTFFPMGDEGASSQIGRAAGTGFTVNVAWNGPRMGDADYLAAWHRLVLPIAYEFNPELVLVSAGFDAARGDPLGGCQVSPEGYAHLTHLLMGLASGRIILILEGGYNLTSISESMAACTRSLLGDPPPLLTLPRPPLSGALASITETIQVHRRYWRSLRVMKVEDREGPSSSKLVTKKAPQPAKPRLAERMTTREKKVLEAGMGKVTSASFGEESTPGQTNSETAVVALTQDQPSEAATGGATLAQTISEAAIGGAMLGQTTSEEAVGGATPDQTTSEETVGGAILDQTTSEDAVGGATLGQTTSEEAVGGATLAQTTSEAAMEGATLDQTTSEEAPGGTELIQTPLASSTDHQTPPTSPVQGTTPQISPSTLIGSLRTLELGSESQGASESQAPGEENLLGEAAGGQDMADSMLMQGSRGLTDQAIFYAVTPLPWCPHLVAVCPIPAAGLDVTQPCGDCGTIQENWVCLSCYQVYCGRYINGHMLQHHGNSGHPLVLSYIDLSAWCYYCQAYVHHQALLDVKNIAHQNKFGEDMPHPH
As to the kind of experiment: HDAC6 enzyme activity inhibition assay (HDAC Fluorimetric Drug Discovery Kit). It counts as biochemical. Conditions: for HDAC6 selectivity (fold): HDAC6 over HDAC1; for pIC50: human recombinant HDAC6, same protocol as HDAC1, read-out: HDAC6. In a few lines: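 Human recombinant HDAC1 or HDAC6 (0.3 μg) reacted with 10 μM Fluor de Lys-SIRT1 substrate and 5-fold compound dilutions for 60 min at 30 °C. Developer II added for 30 min, fluorescence read at Ex 360/Em 460; IC50 calculated from the readings.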

Consider `O=C(N1CCS(=O)(=O)CC1)N(Cc1ccc(-c2nnc(C(F)F)o2)cc1F)c1ccc(CN2CCC(F)(F)CC2)cc1` [Compound 21916, N-(4-(5-(difluoromethyl)-1,3,4-oxadiazol-2-yl)-2-fluorobenzyl)-N-(4-((4,4-difluoropiperidin-1-yl)methyl)phenyl)thiomorpholine-4-carboxamide 1,1-dioxide], for which the “HDAC6 selectivity (fold)” value is 43 fold and the pIC50 was 6.63.
Turning to `CN(C)[C@@H]1CCN(Cc2ccc(N(Cc3ccc(-c4nnc(C(F)F)o4)cc3F)C(=O)N3CCS(=O)(=O)CC3)cc2)C1` [Compound 21917, (R)—N-(4-(5-(difluoromethyl)-1,3,4-oxadiazol-2-yl)-2-fluorobenzyl)-N-(4-((3-(dimethylamino)pyrrolidin-1-yl)methyl)phenyl)thiomorpholine-4-carboxamide 1,1-dioxide], the “HDAC6 selectivity (fold)” value came to 151 fold and the pIC50 was 7.18.
Consider `O=C(N1CCS(=O)(=O)CC1)N(Cc1ccc(-c2nnc(C(F)F)o2)cc1F)c1ccc(CN2CCOCC2)cc1` [Compound 21918, N-(4-(5-(difluoromethyl)-1,3,4-oxadiazol-2-yl)-2-fluorobenzyl)-N-(4-(morpholinomethyl)phenyl)thiomorpholine-4-carboxamide 1,1-dioxide], for which the “HDAC6 selectivity (fold)” value was 52 fold and the pIC50 is 6.71.
The matching figures for `O=C(N1CCS(=O)(=O)CC1)N(Cc1ccc(-c2nnc(C(F)F)o2)cc1F)c1ccc(CN2CCCCC2)cc1` [Compound 21919, N-(4-(5-(difluoromethyl)-1,3,4-oxadiazol-2-yl)-2-fluorobenzyl)-N-(4-(piperidin-1-ylmethyl)phenyl)thiomorpholine-4-carboxamide 1,1-dioxide]: 28 fold and 6.45.
Take `O=C(N1CCS(=O)(=O)CC1)N(Cc1ccc(-c2nnc(C(F)F)o2)cc1F)c1ccc(OC2CCN(Cc3ccccc3)CC2)cc1` [Compound 21924, N-(4-((1-benzylpiperidin-4-yl)oxy)phenyl)-N-(4-(5-(difluoromethyl)-1,3,4-oxadiazol-2-yl)-2-fluorobenzyl)thiomorpholine-4-carboxamide 1,1-dioxide]: the “HDAC6 selectivity (fold)” value is given as 47 fold and the pIC50 is 6.67.
Regarding `C[C@@H]1CN(Cc2ccccc2)C[C@H](C)N1Cc1ccc(N(Cc2ccc(-c3nnc(C(F)F)o3)cc2F)C(=O)N2CCS(=O)(=O)CC2)cc1` [Compound 21925], the “HDAC6 selectivity (fold)” value amounted to 12 fold and the pIC50 is 6.08.
The matching figures for `C[C@@H]1CN(Cc2ccc(N(Cc3ccc(-c4nnc(C(F)F)o4)cc3F)C(=O)N3CCS(=O)(=O)CC3)cc2)C[C@H](C)N1Cc1ccccc1` [Compound 21926]: 28 fold and 6.45.
The matching figures for `O=C(N1CCOCC1)N(Cc1ccc(-c2nnc(C(F)F)o2)cc1F)c1ccc(F)c(Cl)c1` [Compound 21929, N-(3-chloro-4-fluorophenyl)-N-(4-(5-(difluoromethyl)-1,3,4-oxadiazol-2-yl)-2-fluorobenzyl)morpholine-4-carboxamide]: 176 fold and 7.24.
`O=C(N1CCOCC1)N(Cc1ccc(-c2nnc(C(F)(F)F)o2)cc1F)C12CC3CC(CC(C3)C1)C2` [Compound 21931, N-((3s,5s,7s)-adamantan-1-yl)-N-(2-fluoro-4-(5-(trifluoromethyl)-1,3,4-oxadiazol-2-yl)benzyl)morpholine-4-carboxamide]: the “HDAC6 selectivity (fold)” value is listed as 6 fold and the pIC50 is 5.76.
Taken in the same sequence, the figures for `O=C(N1CCOCC1)N(Cc1ccc(-c2nnc(C(F)F)o2)cc1F)CC12CC3CC(CC(C3)C1)C2` [Compound 21932, N-(((3r,5r,7r)-adamantan-1-yl)methyl)-N-(4-(5-(difluoromethyl)-1,3,4-oxadiazol-2-yl)-2-fluorobenzyl)morpholine-4-carboxamide] were 15 fold and 6.16.
Consider `O=C(N1CCOCC1)N(Cc1ccc(-c2nnc(C(F)(F)F)o2)cc1F)CC12CC3CC(CC(C3)C1)C2` [Compound 21933, N-(((3r,5r,7r)-adamantan-1-yl)methyl)-N-(2-fluoro-4-(5-(trifluoromethyl)-1,3,4-oxadiazol-2-yl)benzyl)morpholine-4-carboxamide], for which the “HDAC6 selectivity (fold)” value amounted to 4 fold and the pIC50 is 5.62.
Consider `CCN1C[C@@H](C)N(Cc2ccc(N(Cc3ccc(-c4nnc(C(F)F)o4)cc3F)C(=O)N3CCS(=O)(=O)CC3)cc2)[C@@H](C)C1` [Compound 21934, N-(4-(5-(difluoromethyl)-1,3,4-oxadiazol-2-yl)-2-fluorobenzyl)-N-(4-(((2R,6S)-4-ethyl-2,6-dimethylpiperazin-1-yl)methyl)phenyl)thiomorpholine-4-carboxamide 1,1-dioxide], for which the “HDAC6 selectivity (fold)” value worked out at 15 fold and the pIC50 was 6.18.
Taken in the same sequence, the figures for `CCN1[C@H](C)CN(Cc2ccc(N(Cc3ccc(-c4nnc(C(F)F)o4)cc3F)C(=O)N3CCS(=O)(=O)CC3)cc2)C[C@@H]1C` [Compound 21935, N-(4-(5-(difluoromethyl)-1,3,4-oxadiazol-2-yl)-2-fluorobenzyl)-N-(4-(((3S,5R)-4-ethyl-3,5-dimethylpiperazin-1-yl)methyl)phenyl)thiomorpholine-4-carboxamide 1,1-dioxide] were 38 fold and 6.58.
Consider `O=C(N1CCN(C2COC2)CC1)N(Cc1ccc(-c2nnc(C(F)F)o2)cc1)c1cccc(F)c1` [Compound 21936, N-(4-(5-(Difluoromethyl)-1,3,4-oxadiazol-2-yl)benzyl)-N-(3-fluorophenyl)-4-(oxetan-3-yl)piperazine-1-carboxamide], for which the “HDAC6 selectivity (fold)” value amounted to 91 fold and the pIC50 is 6.96.
The matching figures for `O=C(N1CCN(C2COC2)CC1)N(Cc1ccc(-c2nnc(C(F)F)o2)cc1F)c1cccc(F)c1` [Compound 21937, N-(4-(5-(Difluoromethyl)-1,3,4-oxadiazol-2-yl)-2-fluorobenzyl)-N-(3-fluorophenyl)-4-(oxetan-3-yl)piperazine-1-carboxamide]: 153 fold and 7.19.
The matching figures for `O=C(N1CCN(C2COC2)CC1)N(Cc1ccc(-c2nnc(C(F)F)o2)cn1)c1cccc(F)c1` [Compound 21938, N-((5-(5-(Difluoromethyl)-1,3,4-oxadiazol-2-yl)pyridin-2-yl)methyl)-N-(3-fluorophenyl)-4-(oxetan-3-yl)piperazine-1-carboxamide]: 122 fold and 7.09.
Taken in the same sequence, the figures for `O=C(N1CCN(C2COC2)CC1)N(Cc1ccc(-c2nnc(C(F)F)o2)cc1)c1ccc(F)cc1` [Compound 21939, N-(4-(5-(Difluoromethyl)-1,3,4-oxadiazol-2-yl)benzyl)-N-(4-fluorophenyl)-4-(oxetan-3-yl)piperazine-1-carboxamide] were 62 fold and 6.79.
`O=C(N1CCN(C2COC2)CC1)N(Cc1ccc(-c2nnc(C(F)F)o2)cc1F)c1ccc(F)cc1` [Compound 21940, N-(4-(5-(Difluoromethyl)-1,3,4-oxadiazol-2-yl)-2-fluorobenzyl)-N-(4-fluorophenyl)-4-(oxetan-3-yl)piperazine-1-carboxamide]: the “HDAC6 selectivity (fold)” value was 118 fold and the pIC50 is 7.07.
